Literature values as cited in US10927398B2, “Compositions for CYP450 phenotyping using saliva samples” (Concordia University, Inc., priority 2015, dated 2021).
Like-named read-outs stand apart in the source and are kept apart here.

How the values were obtained:
[1] = cited from earlier work
plasma protein = conditions: cited from earlier work
[2] = cited from earlier work; remark: listed apart in the source
[3] = Table of Exemplary Drugs, CYP1A2
[4] = Table of Exemplary Drugs, CYP3A4
[5] = Table of Exemplary Drugs, CYP2D6
[6] = Table of Exemplary Drugs, CYP2C9
[7] = Table of Exemplary Drugs, CYP2C19

COc1ccc2cccc(CCNC(C)=O)c2c1 [Agomelatine]
ORAL BIOAVAILABILITY [1, 3]: <5% | PLASMA PROTEIN BINDING (plasma protein; [3]): 95% | HALF-LIFE [2, 3]: 1 to 2 h

COc1cc2nc(N(C)CCCNC(=O)C3CCCO3)nc(N)c2cc1OC (stereo not drawn) [Alfazosin (Uroxatral), Alfazosin]
ORAL BIOAVAILABILITY ([1]; in vivo, po): 49% | PLASMA PROTEIN BINDING (plasma protein; plasma): 86% | HALF-LIFE ([2]; in vivo): 10 h

Cc1nnc2n1-c1ccc(Cl)cc1C(c1ccccc1)=NC2 [Alprazolam (Xanax), Alprazolam]
ORAL BIOAVAILABILITY [1, 4]: 90% | PLASMA PROTEIN BINDING (plasma protein; [4]): 80% | HALF-LIFE [2, 4]: 11 h

C=CCc1ccccc1OCC(O)CNC(C)C (stereo not drawn) [Alprenolol]
ORAL BIOAVAILABILITY [1, 5]: 20% | PLASMA PROTEIN BINDING (plasma protein; [5]): 80% | HALF-LIFE [2, 5]: 2 to 3 h

CN(C)CCC=C1c2ccccc2CCc2ccccc21 [Amitriptyline]
ORAL BIOAVAILABILITY [1, 3]: ~43-46% | ORAL BIOAVAILABILITY [1, 6]: 30-60% | ORAL BIOAVAILABILITY [1, 7]: 30-60% | ORAL BIOAVAILABILITY [1, 5]: ~43-46% | PLASMA PROTEIN BINDING (plasma protein; [3]): >90% | PLASMA PROTEIN BINDING (plasma protein; [6]): >90% | PLASMA PROTEIN BINDING (plasma protein; [7]): >90% | PLASMA PROTEIN BINDING (plasma protein; [5]): >90% | HALF-LIFE [2, 3]: ~13 to 36 h | HALF-LIFE [2, 6]: 15 h | HALF-LIFE [2, 7]: 15 h | HALF-LIFE [2, 5]: ~13 to 36 h

CCOC(=O)C1=C(COCCN)NC(C)=C(C(=O)OC)C1c1ccccc1Cl (stereo not drawn) [Amlodipine (Norvasc), Amlodipine]
ORAL BIOAVAILABILITY [1, 4]: 64-90%

CC(N)Cc1ccccc1 (stereo not drawn) [Amphetamine]
ORAL BIOAVAILABILITY ([1]; in vivo, po): 100+%

C[C@@H](O[C@H]1OCCN(Cc2n[nH]c(=O)[nH]2)[C@H]1c1ccc(F)cc1)c1cc(C(F)(F)F)cc(C(F)(F)F)c1 [Aprepitant (Emend), Aprepitant]
ORAL BIOAVAILABILITY [1, 4]: 60-65% | PLASMA PROTEIN BINDING (plasma protein; [4]): 95% | HALF-LIFE [2, 4]: 9 to 13 h

COC(=O)N[C@H](C(=O)N[C@@H](Cc1ccccc1)[C@@H](O)CN(Cc1ccc(-c2ccccn2)cc1)NC(=O)[C@@H](NC(=O)OC)C(C)(C)C)C(C)(C)C [Atazanavir (Reyataz), Atazanavir]
ORAL BIOAVAILABILITY [1, 4]: 60-68% | PLASMA PROTEIN BINDING (plasma protein; [4]): 86% | HALF-LIFE [2, 4]: 7 h

CNCC[C@@H](Oc1ccccc1C)c1ccccc1 [Atomoxetine]
ORAL BIOAVAILABILITY [1, 5]: 63% | PLASMA PROTEIN BINDING (plasma protein; [5]): 98% | HALF-LIFE [2, 5]: 5.2 h

COc1ccccc1Oc1c(NS(=O)(=O)c2ccc(C(C)(C)C)cc2)nc(-c2ncccn2)nc1OCCO [Basentan (Tracleer), Basentan]
ORAL BIOAVAILABILITY [1, 4]: 50% | PLASMA PROTEIN BINDING (plasma protein; [4]): 98% | HALF-LIFE [2, 4]: 5 h

CC(C)COCC(CN(Cc1ccccc1)c1ccccc1)N1CCCC1 (stereo not drawn) [Bepridil (Vascor), Bepridil]
ORAL BIOAVAILABILITY [1, 4]: 60% | HALF-LIFE [2, 4]: 42 h

CC(C)C[C@H]1C(=O)N2CCC[C@H]2[C@]2(O)O[C@](NC(=O)[C@@H]3C=C4c5cccc6[nH]c(Br)c(c56)C[C@H]4N(C)C3)(C(C)C)C(=O)N12 [Bromocriptine (Parlodel), Bromocriptine]
ORAL BIOAVAILABILITY [1, 4]: 65-95% | PLASMA PROTEIN BINDING (plasma protein; [4]): 90-96% ^ | HALF-LIFE [2, 4]: 6 to 20 h

CCCC1O[C@@H]2C[C@H]3[C@@H]4CCC5=CC(=O)C=C[C@]5(C)[C@H]4[C@@H](O)C[C@]3(C)[C@]2(C(=O)CO)O1 (stereo partly drawn) [Budesonide (Entocort), Budesonide]
ORAL BIOAVAILABILITY [1, 4]: 9-21% | PLASMA PROTEIN BINDING (plasma protein; [4]): 85-90% ^ | HALF-LIFE [2, 4]: 2 to 3.6 h

COc1ccccc1OCCNCC(O)COc1cccc2[nH]c3ccccc3c12 (stereo not drawn) [Carvedilol]
ORAL BIOAVAILABILITY [1, 5]: 25-35% | PLASMA PROTEIN BINDING (plasma protein; [5]): 95-98% ^ | HALF-LIFE [2, 5]: 6 to 10 h

CN(C)CCCN1c2ccccc2Sc2ccc(Cl)cc21 [Chlorpromazine]
ORAL BIOAVAILABILITY [1, 5]: 32% | PLASMA PROTEIN BINDING (plasma protein; [5]): 90-99% ^ | HALF-LIFE [2, 5]: 6 h

COc1cc2c(c(OC)c1OC)-c1ccc(OC)c(=O)cc1[C@@H](NC(C)=O)CC2 [Colchicine]
ORAL BIOAVAILABILITY [1, 4]: 45% | HALF-LIFE [2, 4]: 26.6 to 31.2 h

Nc1ccc(S(=O)(=O)c2ccc(N)cc2)cc1 [Dapsone (Avlosulfon), Dapsone]
ORAL BIOAVAILABILITY [1, 4]: 86-104% | PLASMA PROTEIN BINDING (plasma protein; [4]): 70-90% ^

CC(C)CN(C[C@@H](O)[C@H](Cc1ccccc1)NC(=O)O[C@H]1CO[C@H]2OCC[C@H]21)S(=O)(=O)c1ccc(N)cc1 [Darunavir (Prezista), Darunavir]
ORAL BIOAVAILABILITY [1, 4]: 37%

O=C(O)Cc1ccccc1Nc1c(Cl)cccc1Cl [Diclofenac]
ORAL BIOAVAILABILITY [1, 6]: 50% | HALF-LIFE [2, 6]: 1.9 to 2.2 h

CN1C[C@H](C(=O)N[C@]2(C)O[C@@]3(O)[C@@H]4CCCN4C(=O)[C@H](Cc4ccccc4)N3C2=O)C=C2c3cccc4[nH]cc(c34)C[C@H]21 [Ergotamine (Ergomar), Ergotamine]
ORAL BIOAVAILABILITY ([1]; in vivo, po): <5% | HALF-LIFE ([2]; in vivo): 1.5 to 2.5 h

CCC1(C)CC(=O)NC1=O (stereo not drawn) [Ethosuximide (Zarontin), Ethosuximide]
ORAL BIOAVAILABILITY [1, 4]: 93% | HALF-LIFE [2, 4]: 25 to 60 h

CCOC(=O)C1=C(C)NC(C)=C(C(=O)OC)C1c1cccc(Cl)c1Cl (stereo not drawn) [Felodipine (Plendil), Felodipine]
ORAL BIOAVAILABILITY [1, 4]: 13-20%

CC(C)(C)NC(=O)[C@H]1CC[C@H]2[C@@H]3CC[C@H]4NC(=O)C=C[C@]4(C)[C@H]3CC[C@]12C [Finasteride (Proscar), Finasteride]
ORAL BIOAVAILABILITY [1, 4]: 65% | HALF-LIFE [2, 4]: 4.5 h
